Measurements from patent publication US8106096B2, “Compositions and methods for treatment of optic nerve diseases” (University of Maryland, Baltimore, priority 2008, dated 2012).
“Also recorded” adds a separate entry of the source.

How the values were obtained:
optic nerve (ON) edema = experiment: ON edema after rAION by direct fundus observation in the living animal; type: in vivo, rat; conditions: post-infarct administration (systemic and intravitreal), first 3 days post-induction; 1-3 days following rAION
Text: PGJ2-treated animals have 72.4% of the number of naïve RGCs compared with 34.3 for vehicle treated animals (black bar, FIG. 2).

[1] = system: retinal ganglion cells (RGC); experiment: Stereological analysis of RGC numbers after rAION (ON stroke); type: in vivo, rat
Description: Stereological analysis of RGC numbers in naïve and rAION induced rat retinae treated with either PGJ2 or Vehicle (PBS). Animals were injected IV 1Xd for 3 days with either 100 mg/kg PGJ2 or PBS-vehicle. Animals were euthanized and retinae analyzed 30 days post-rAION induction. Average numbers based on 4 retinae/group; RGC stereology derived from Brn3a (+) RGC immunostaining.
Statistical analysis of 15-deoxy delta (12,14) PGJ2 administration to rats after optic nerve (ON) stroke. […] The ordinate represents the number of retinal ganglion cells in each retina. The abscissa represents the number of fields of cells counted to reach a statistically valid number as determined by the field of stereology. The green line represents the typical number of retinal ganglion cells in the untreated (naïve; no stroke) rat retina. The response of rat retina and optic nerve to vehicle treatment is shown in yellow. The response of PGJ2 treated animals is shown in Blue.
rAION-associated cell loss is analyzed using stereological analysis.
Rats were used for this experiment and ON stroke was administered to a 75% predicted loss of RGCs by the method of Bernstein et al., 2003, supra. RGC's were counted in each retina in the untreated (naïve; no stroke) and rats with rAION treated with PGJ2.

[2] = system: ED-1(+) extrinsic macrophages; experiment: Extrinsic macrophage (ED-1(+)) recruitment into ON after rAION induction; type: in vivo, rodent
Text: The present inventor has evaluated the location of early ON-macrophage activity following rAION induction, using antibodies for both general cellular inflammation (IBA-1) and extrinsic macrophages (detected by antibody to ED-1). […] Few, if any extrinsic macrophages are present in normal uninfarcted ON (results not shown). Following rAION induction, ED-1(+) extrinsic macrophages enter the ON and cluster in the primary ischemic lesion site immediately behind the retina/ON junction. Little extrinsic macrophage infiltration occurs >250 microns post-ON/retina junction. […] Control (vehicle treated animals) show a similar pattern (data not shown). […] Extrinsic macrophages extend beyond the initial lesion site, even during early axonal degeneration occurring 6 days post-induction. Thus, it is possible to administer intraventricular GM-CSF to recruit extrinsic macrophages into the ON following rAION, and determine whether the macrophage recruitment approach is useful to enhancing ON-axonal repair and regeneration following ON infarct.

Compound	ON edema (optic nerve (ON) edema)	RGC survival ([1]; 30 days post-rAION induction)	number of RGCs relative to naïve RGCs ([1]; rat rAION, IV 1Xd for 3 days, 100 mg/kg, 30 days post-rAION induction, Brn3a(+) RGC stereology) [%]	preservation of the neurons whose axons comprise the optic nerve ([1]; rats, ON stroke to a 75% predicted loss of RGCs, PGJ2 treatment after stroke)	numbers of ED-1(+) cells in ON ([2]; 1 ug stereotactically injected into the superior colliculus, 6 days post-induction, vehicle controls show a similar pattern)	recruitment of ED-1(+) cells in rAION-induced ONs ([2]; intraventricular injection, data not shown)	ability to recruit extrinsic macrophages ([2]; rAION, IBA-1 and ED-1 antibodies, data not shown)
CCCCC/C=C/C=C1/C(=O)C=C[C@@H]1C/C=C\CCCC(=O)O [PGJ2, 15 deoxy delta 12,14 prostaglandin J2]	reduced gross ON edema; also recorded: reduces ON edema	increased RGC survival	72.4	35-50%	–	–	–
GM-CSF: Granulocyte-Macrophage Colony Stimulating Factor; directly activates macrophages and recruits extrinsic macrophages	–	–	–	–	decreased numbers of ED-1(+) cells	significantly enhanced recruitment of ED-1(+) cells	has the ability to recruit extrinsic macrophages
